Tests used:
[1] = system: MCF7MX cells; assay: SRB cell viability assay in MCF7MX cells (ABCG2 overexpressing); assay type: cell-based, human; conditions: for GI50: Homo sapiens, MCF7/MX, 72 h, SRB
Procedure: (§1) Cell viability by the sulforhodamine B (SRB) assay was used to assess cell growth and cytotoxicity of test compounds [29]. Cells were seeded at densities of 3,500 to 5,000 cells per well in 96 well plates overnight and pre-treated for 1 h with ABC transporter modulators: 10 μM fumitremorgin C (FTC; in MCF7MX and MCF7 cells), or 0.3 μM of zosuquidar (in 3T3 and 3T3-MDR1). Cells were then treated with test compounds for 72 h, at 37°C. After drug treatment, cells were fixed by addition of 50% trichloroacetic acid (TCA), and the plates washed and dried to allow staining with 0.4% solution of sulforhodamine B (Sigma) in 1% acetic acid for 30 minutes. Excess dye was removed upon washing with 1% acetic acid. Plates were dried and bound protein was solubilised upon addition of 150 μL of 10 mM Tris base buffer. Absorbance was measured at 540 nm using Thermo Multiskan-Ex plate reader. Cell viability versus compound concentration curves were plotted as a percentage of control cells. The concentration of drug that gave 50% inhibition in cell growth (GI50) was extrapolated from these curves using the sigmoid curve fit with variable slope in Prism (GraphPad Prism version 5.01, GraphPad Software, San Diego California USA). Three to six replicate wells were used for each drug concentration and experiments were carried out on three separate occasions for each compound.

[2] = system: MCF7 cells; assay: SRB cell viability assay in MCF7 cells; assay type: cell-based; conditions: Homo sapiens, 72 h
Procedure: as §1

[3] = system: active mutant EGFR; assay: Inhibition of EGFR autophosphorylation in active mutant EGFR expressing cell lines (H1650, PC9, H3255); assay type: cell-based; conditions: H1650 (del 746–750), PC9 (del 746–750) and H3255 (L858R) cells; read-out: IC50 p-EGFR Y1068 in active mutant EGFR expressing cell lines
Procedure: (§2) Affinity of the cyanoquinolines for EGFR was established by measuring their inhibition of EGFR autophosphorylation via western blot. Cells were seeded in 6 well plates and following 24 h of growth, were subject to overnight serum starvation. The cells were then treated with increasing concentrations of cyanoquinolines prepared in serum free growth media from a DMSO stock (final DMSO concentration < 1%) for 3 h at 37°C, and stimulated for receptor autophosphorylation by addition of 100 ng/mL of EGF during the last 15 minutes of drug incubation. After 3 h the cells were placed on ice, media removed and then the cells were washed two times with ice cold phosphate buffered saline (PBS). Lysates were analysed by western blot to measure changes to p-EGFR Y1068.
(§3) Cell lysates were prepared by addition of radioimmunoprecipitation assay (RIPA) buffer (50mM Tris-HCl pH 7.2, 150mM NaCl, 1% NP40, 1% sodium deoxycholate, 0.1% sodium dodecyl sulfate) supplemented with 1 x protease and phosphatase inhibitor cocktail (1mM 4-(2-Aminoethyl)benzenesulfonylfluoride hydrochloride, 800 nM aprotinin, 50 μM bestatin, 15 μM E-64, 5μM EDTA, 20 μM leupeptin, 10 μM pepstatin A; Thermo scientific, Waltham, Massachusetts, USA). […] Cellular protein levels were assessed using a bicinchoninic acid (BCA) protein assay kit according to the manufacturer’s instructions (Thermo scientific). […]

[4] = molecular target: T1, wildtype EGFR (A549 cells) (Homo sapiens, UniProt P00533); assay: Inhibition of EGFR autophosphorylation (p-EGFR Y1068, western blot) in A549 cells; assay type: cell-based; conditions: 3 h incubation, EGF stimulated
T1 construct: host or cells: A549
T1 sequence (P00533 25-1210): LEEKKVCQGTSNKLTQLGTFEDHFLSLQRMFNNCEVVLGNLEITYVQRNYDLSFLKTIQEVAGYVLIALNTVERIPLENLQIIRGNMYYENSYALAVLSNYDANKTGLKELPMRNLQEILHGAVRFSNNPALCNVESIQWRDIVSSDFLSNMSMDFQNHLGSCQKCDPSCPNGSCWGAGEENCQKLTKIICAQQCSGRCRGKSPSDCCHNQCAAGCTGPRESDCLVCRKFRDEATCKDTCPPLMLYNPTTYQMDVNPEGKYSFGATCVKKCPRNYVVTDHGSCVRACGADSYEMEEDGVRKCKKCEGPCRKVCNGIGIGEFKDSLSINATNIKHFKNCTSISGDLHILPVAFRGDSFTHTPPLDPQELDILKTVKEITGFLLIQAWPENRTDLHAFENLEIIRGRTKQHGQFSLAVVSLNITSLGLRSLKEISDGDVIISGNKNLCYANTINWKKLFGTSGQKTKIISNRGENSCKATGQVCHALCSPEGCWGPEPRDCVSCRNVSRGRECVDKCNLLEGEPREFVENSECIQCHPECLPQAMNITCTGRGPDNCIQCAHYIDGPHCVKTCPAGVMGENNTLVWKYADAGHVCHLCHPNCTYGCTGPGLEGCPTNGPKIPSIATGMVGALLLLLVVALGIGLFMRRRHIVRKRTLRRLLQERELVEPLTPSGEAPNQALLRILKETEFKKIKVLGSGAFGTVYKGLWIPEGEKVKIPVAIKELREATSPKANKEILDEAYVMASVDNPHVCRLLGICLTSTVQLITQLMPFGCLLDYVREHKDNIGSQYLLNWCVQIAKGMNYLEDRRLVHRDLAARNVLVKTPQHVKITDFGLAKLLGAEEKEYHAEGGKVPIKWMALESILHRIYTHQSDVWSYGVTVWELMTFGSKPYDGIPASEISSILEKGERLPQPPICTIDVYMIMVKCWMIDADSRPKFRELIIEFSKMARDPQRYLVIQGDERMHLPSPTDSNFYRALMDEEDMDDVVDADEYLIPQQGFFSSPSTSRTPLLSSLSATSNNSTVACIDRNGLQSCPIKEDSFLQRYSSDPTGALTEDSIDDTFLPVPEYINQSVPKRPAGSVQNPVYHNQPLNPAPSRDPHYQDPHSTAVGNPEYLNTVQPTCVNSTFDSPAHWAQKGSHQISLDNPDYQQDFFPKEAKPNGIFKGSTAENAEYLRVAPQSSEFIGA
Procedure: as §2, §3

[5] = molecular target: T2, wildtype EGFR (Homo sapiens, UniProt P00533); assay: Inhibition of EGFR autophosphorylation in wildtype EGFR expressing A549 and H358 cells; assay type: cell-based; conditions: read-out: IC50 p-EGFR Y1068 in wildtype EGFR expressing cells
T2 construct: host or cells: H358; A549
T2 sequence (P00533 25-1210): as above
Procedure: as §2, §3

[6] = 1 h pre-treatment with 10 μM FTC

CCOc1cc2ncc(C#N)c(Nc3ccc(F)c(Cl)c3)c2cc1NC(=O)/C=C/CNCc1cn(CCF)nn1 [FED6, (2E)-N-{4-[(3-chloro-4-fluorophenyl)amino]-3-cyano-7-ethoxyquinolin-6-yl}-4-({[1-(2-fluoroethyl)-1H-1,2,3-triazol-4-yl]methyl}amino)-but-2-enamide]
fold increase in GI50 in the ABCG2 overexpressing cell line ([1]; GI50 MCF7MX over GI50 MCF7, without FTC): 6.3 fold | GI50 [1, 6]: 37.9 ± 21.9 µM | GI50 ([1]; without FTC): 75.9 ± 43.8 µM | GI50 [2, 6]: 12.3 ± 7.1 µM | GI50 ([2]; without FTC): 12 ± 6.93 µM | IC50 [3]: 0.008 to 0.04 µM | IC50 [4]: 0.7 µM | IC50 [5]: 0.6 to 0.7 µM

From publication PMC4995014, “Identification of ABC Transporter Interaction of a Novel Cyanoquinoline Radiotracer and Implications for Tumour Imaging by Positron Emission Tomography” (PLoS ONE, 2016)
